The text below walks through data of US9981909B2 (Janssen Pharmaceutica NV, priority 2008, dated 2018).

Usually Ki stands for the dissociation constant of the complex between target and ligand, obtained from inhibition or displacement.

Structures can show the parent of a compound that is named as a salt.

The target in one assay is rat 5-HT7 receptor (Rattus norvegicus (Rat), UniProt P32305). Put plainly: r5-HT7 binding assay, competitive radioligand binding with [3H]5-CT. To be noted: rat 5-HT7 receptor, HEK-293 membranes. The method in brief: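 Whole r5-HT7-transfected HEK-293 cells first received test compound for 10 min. They were then exposed to 100 nM 5-CT for 20 min before lysis and competitive immunoassay of cAMP. Affinity came from displacement of [3H]5-CT on membranes of the same recombinant line, expressed as Ki.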
Sequence of rat 5-HT7 receptor (P32305 1-435): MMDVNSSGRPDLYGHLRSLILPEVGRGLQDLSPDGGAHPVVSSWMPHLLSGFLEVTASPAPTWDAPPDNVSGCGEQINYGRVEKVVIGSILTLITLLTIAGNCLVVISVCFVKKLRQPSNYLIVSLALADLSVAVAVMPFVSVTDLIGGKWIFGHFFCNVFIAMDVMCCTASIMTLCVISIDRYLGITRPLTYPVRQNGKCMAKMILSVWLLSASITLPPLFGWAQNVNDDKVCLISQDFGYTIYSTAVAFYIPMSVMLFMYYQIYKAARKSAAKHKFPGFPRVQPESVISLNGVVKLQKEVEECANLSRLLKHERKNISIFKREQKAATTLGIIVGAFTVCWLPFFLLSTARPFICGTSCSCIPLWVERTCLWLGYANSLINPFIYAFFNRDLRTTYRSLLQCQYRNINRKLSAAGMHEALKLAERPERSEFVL

The target in another assay is human SERT (Homo sapiens (Human), UniProt P31645). The experiment in a line: human SERT binding assay with [3H]-citalopram on HEK-293 membranes. To be noted: read-out: hSERT binding Ki. The procedure:
Receptor binding was performed using membrane fractions prepared from the HEK-293 cell line recombinantly expressing rat 5-HT7 receptors (NCBI accession NM_022938). Compound affinity for the rat 5-HT7 receptor subtype was evaluated by competitive radioligand binding assays using 5-carboxamido[^3H]tryptamine ([^3H]5-CT) (Amersham Biosciences, cat. 90000403) detection. HitHunter™ cAMP assays are in-vitro based competitive immunoassays. The assay was performed on the HEK-293 cell line stably transfected with r5-HT7 receptor. Cells were pre-incubated with test compounds for 10 minutes. For antagonist testing, the cells were then challenged with 100 nM 5-CT for 20 minutes. Cells were then lysed and cAMP measured according to manufacturers protocol (Amersham, cat. NET791250UC) or [^3H]mesulergine (Amersham, cat. TRK1041). The assay was performed on membranes prepared from HEK-293 cells stably transfected with h5-HT6. Following centrifugation, membranes were resuspended and incubated for 60 min at room temperature with 1.7 nM [^3H]LSD in the presence of increasing concentration of test compounds. Nonspecific binding was defined in the presence of 10 μM clozapine (Tocris, cat. TRK1068). Homogenized HEK-293 membranes expressing the human SERT were incubated in 50 mM Tris-HCl (pH 7.5), 120 mM NaCl, 5 mM KCl with [^3H]-citalopram (3 nM) with or without test compounds. Nonspecific binding was determined in the presence of 10 μM fluoxetine. Radioactivity readouts and Ki values were performed as previously described for r5-HT7. […] Compounds were assayed in their free form or as salts, as indicated in the Examples section above.

Sequence of human SERT (P31645 whole entry): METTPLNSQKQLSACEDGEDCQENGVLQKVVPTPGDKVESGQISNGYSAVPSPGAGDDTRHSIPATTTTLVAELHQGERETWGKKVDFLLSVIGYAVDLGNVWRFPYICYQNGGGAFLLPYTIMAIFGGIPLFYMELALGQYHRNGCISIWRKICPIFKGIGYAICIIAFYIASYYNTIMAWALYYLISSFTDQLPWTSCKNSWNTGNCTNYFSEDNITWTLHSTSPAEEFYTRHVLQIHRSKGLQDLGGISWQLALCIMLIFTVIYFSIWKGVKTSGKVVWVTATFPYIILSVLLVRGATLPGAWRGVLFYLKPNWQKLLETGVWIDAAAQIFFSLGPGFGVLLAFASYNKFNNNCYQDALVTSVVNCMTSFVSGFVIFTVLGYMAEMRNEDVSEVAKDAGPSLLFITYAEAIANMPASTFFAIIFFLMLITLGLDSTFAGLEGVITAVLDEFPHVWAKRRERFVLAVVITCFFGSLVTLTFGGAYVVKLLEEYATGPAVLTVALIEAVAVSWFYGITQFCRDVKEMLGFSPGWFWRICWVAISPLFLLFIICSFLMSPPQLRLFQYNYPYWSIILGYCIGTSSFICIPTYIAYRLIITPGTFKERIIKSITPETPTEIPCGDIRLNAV

Take `Clc1ccc(OCc2ccncc2)c(OC2CNC2)c1` [Example 53, 4-[2-(Azetidin-3-yloxy)-4-chloro-phenoxymethyl]-pyridine]: the results for the Ki on rat 5-HT7 receptor and on human SERT were 0.26 µM and 0.464 µM, respectively.
The corresponding values for `FC(F)(F)c1ccc(COc2ccc(Br)cc2OC2CCNCC2)o1` [Example 64, 4-[5-Bromo-2-(5-trifluoromethyl-furan-2-ylmethoxy)-phenoxy]-piperidine] are 0.017 µM and 0.043 µM.
Taken in the same sequence, the figures for `CN1CC(Oc2cc(Cl)ccc2OCc2cc(CO)c(C(F)(F)F)o2)C1` [Example 77] were 0.153 µM and 5 µM.
The corresponding values for `Clc1ccc(OCc2ccc3occc3c2)c(OC2CNC2)c1` [Example 83, 3-[2-(Benzofuran-5-ylmethoxy)-5-chloro-phenoxy]-azetidine] are 0.016 µM and 0.024 µM.
For `Clc1ccc(OCc2ccc3ncsc3c2)c(OC2CNC2)c1` [Example 84, 6-[2-(Azetidin-3-yloxy)-4-chloro-phenoxymethyl]-benzothiazole], the Ki at rat 5-HT7 receptor was found to be 0.034 µM; on human SERT, 0.061 µM.
Take `Cn1nnc2ccc(COc3ccc(Cl)cc3OC3CNC3)cc21` [Example 85, 6-[2-(Azetidin-3-yloxy)-4-chloro-phenoxymethyl]-1-methyl-1H-benzotriazole]: the Ki on rat 5-HT7 receptor was found to be 0.095 µM; at human SERT, 0.404 µM.
Consider `FC1(F)Oc2ccc(COc3ccc(Cl)cc3OC3CNC3)cc2O1` [Example 86, 3-[5-Chloro-2-(2,2-difluoro-benzo[1,3]dioxol-5-ylmethoxy)-phenoxy]-azetidine], for which the results for the inhibition constant (Ki) on rat 5-HT7 receptor and at human SERT were 0.038 µM and 0.121 µM, respectively.
Taken in the same sequence, the figures for `Clc1ccc(OCc2cc3ccccc3o2)c(OC2CNC2)c1` [Example 89, 3-[2-(Benzofuran-2-ylmethoxy)-5-chloro-phenoxy]-azetidine] were 0.025 µM and 0.242 µM.
The corresponding values for `C[C@H](Oc1ccc(Cl)cc1OC1CNC1)c1cccc(C(F)(F)F)c1` [Example 102, (S)-3-[5-Chloro-2-[1-(3-trifluoromethyl-phenyl)-ethoxy]-phenoxy]-azetidine trifluoroacetate] are 0.376 µM and 0.954 µM.
Regarding `CC(Oc1ccc(Cl)cc1OC1CNC1)c1nc2ccccc2s1` (centres unmarked) [Example 131, 2-[1-[2-(Azetidin-3-yloxy)-4-chloro-phenoxy]-ethyl]-benzothiazole], the Ki on rat 5-HT7 receptor amounted to 0.073 µM; at human SERT, 1.35 µM.
On to `FCC(Oc1ccc(Br)cc1OC1CNC1)c1ccccc1` (centres unmarked) [Example 142, 3-[5-Bromo-2-(2-fluoro-1-phenyl-ethoxy)-phenoxy]-azetidine], for which the figures for the inhibitory constant (Ki) at rat 5-HT7 receptor and on human SERT were 0.091 µM and 0.613 µM, respectively.
The corresponding values for `Clc1ccc(OCC2CCc3ccccc3O2)c(OC2CNC2)c1` (centres unmarked) [Example 165, 3-[5-Chloro-2-(chroman-2-ylmethoxy)-phenoxy]-azetidine] are 0.016 µM and 0.095 µM.
With `Clc1ccc(OCCOc2ccccc2)c(OC2CNC2)c1` [Example 171, 3-[5-Chloro-2-(2-phenoxy-ethoxy)-phenoxy]-azetidine], the values for the Ki at rat 5-HT7 receptor and on human SERT were 0.007 µM and 0.234 µM, respectively.
The corresponding values for `Fc1ccc2c(c1)CC(Oc1ccc(Cl)cc1OC1CNC1)C2` (centres unmarked) [Example 175, 3-[5-Chloro-2-(5-fluoro-indan-2-yloxy)-phenoxy]-azetidine] are 0.011 µM and 0.004 µM.
The corresponding values for `Clc1ccc2c(c1)CC(Oc1ccc(Cl)cc1OC1CNC1)C2` (centres unmarked) [Example 176, 3-[5-Chloro-2-(5-chloro-indan-2-yloxy)-phenoxy]-azetidine] are 0.024 µM and 0.075 µM.
Turning to `COc1cccc2c1CC(Oc1ccc(Cl)cc1OC1CNC1)C2` (centres unmarked) [Example 178, 3-[5-Chloro-2-(4-methoxy-indan-2-yloxy)-phenoxy]-azetidine], the inhibitory constant (Ki) on rat 5-HT7 receptor was determined as 0.017 µM; at human SERT, 0.131 µM.
